Measured values published in patent US8324380B2, “Amino-heteroaryl-containing prokineticin 1 receptor antagonists” (Janssen Pharmaceutica NV, priority 2007, dated 2012).
Read-outs that look alike come from different tables or passages of the source.

B1: PK1: Recombinant human prokineticin-1 expressed in HEK 293 cells; preparation holds full-length ligand and a four C-terminal residue truncated product (protein, UniProt P58294 20-105, looked up)
Prokineticin-1: AVITGACERDVQCGAGTCCAISLWLRGLRMCTPLGREGEECHPGSHKVPFFRKRKHHTCPCLPNLLCSRFPDGRYRCSMDLKNINF
modifications: mixture with C-terminally truncated product
notes: Recombinant human prokineticin-1 expressed in HEK 293 cells; preparation holds full-length ligand and a four C-terminal residue truncated product

Legend:
[1] = target: T1, GPR73 (prokineticin 1 receptor) (Homo sapiens, UniProt Q8TCW9); test: PK1 functional assay: Ca2+ mobilization on the FLIPR; assay type: cell-based; settings: for IC50: HEK 293 GPR73 cells, read-out: Ca^2+ Mobilization IC50
T1 construct: expressed in transfected cells; host or cells: HEK 293
Procedure: At a time of 24 h prior to running the assay, in cell culture media (DMEM containing high Glucose and L-glutamine, 10% FBS, 1% Pen/Streptomycin, 1% Sodium Pyruvate, 20 mM HEPES, Zeocin 200 mg/L), 100 µL of 1.3*10^6/ml HEK 293 GPR73 (prokineticin 1 receptor) expressing cells were plated in a 96 well poly-d-lysine coated plate (Costar), and incubated at 37° C. and 5% CO2. On the day in which the assay was run, the media was removed and 200 µL of 5× Calcium Plus Dye (Molecular Devices) which was previously resuspended with 200 mL of assay buffer [HBSS w/Ca^2+ and Mg^2+ w/o phenol red, 20 mM HEPES, 0.1% BSA, 10 mL probenecid (710 mg probenecid in 5 mL of 1N NaOH, to which was then added 5 mL HBSS containing 20 mM HEPES)] was added to each well of the 96-well plate. The plate was incubated at 37° C. and 5% CO2 for 30 min in dark. The plate was removed and allowed to reach RT for 15 min in the dark. The assay was then run on the FLIPR. In Brief: base line read for 1 min, compound added (25 μL) and incubated for 4 min, 15 seconds, PK1 ligand preparation added (25 μL) for a final concentration of a previously determined EC50 and fluorescence was counted for 1 min, 45 seconds. Baseline is described as the amount of relative fluorescence read when buffer alone is added to cells. Baseline was subtracted from all wells. Percent of control was calculated as follows: (Baseline subtracted well value is divided by baseline subtracted max value)*100. Percent inhibition is 100 minus the percent of control value.
The IC50 is defined as the amount of a given compound required to inhibit 50% of the maximum signal that is generated by the concentration of PK1 preparation used in our assay. IC50 values were calculated using GraphPad Prism.

[2] = target: T2, PK1 receptor (Rattus norvegicus, UniProt Q8R416); test: Suppression of PK1 evoked increase in Isc in isolated rat ileum mucosa; settings: test compound 1 µM, 15 min; PK1 10 and 100 nM cumulative
T2 construct: The PK1 evoked increase in Isc requires the presence of endogenous PK1 receptors; from tissue; host or cells: rat ileum mucosa (Ussing-type chambers)
Procedure: Methodology. The basic methodology for Ussing-type ion flux chambers used in these studies was the same as that described in detail above with the following modifications to the experimental protocol. […] The responses to two sequential EFS were used to gauge tissue viability and comparability of the responses of individual tissues from each rat and between rats. Tissue conductance was measured at periodic intervals as changes in the amplitudes of brief short-circuit current responses evoked by application of 1 mV amplitude bi-polar pulses from a pulse generator using Ohm's Law. Three to four tissues from each rat were studied. The tissues from a given animal were grouped and assigned accordingly: one control tissue which received only vehicle followed by two consecutive doses of PK-1 ligand added in a cumulative fashion to the basolateral surface of the tissue; the remaining two to three tissues from the same animal were assigned to be exposed to a given PK-1 receptor antagonist (e.g., 3-4 tissues from 1 rat: Control, Antagonist1, Antagonist2, and/or Antagonist3). Test compound was added to the basolateral tissue side reservoir at a final concentration of 1 µM and allowed a 15 minute incubation period prior to challenge with the PK1 peptide. […]

[3] = system: rat ileum mucosa; test: Carbachol-evoked Isc in rat ileum mucosa (selectivity test); settings: carbachol at two concentrations, ascending cumulative, serosal side
[4] = system: isolated rat ileum mucosa
[5] = system: ileum mucosal tissues from PK1 receptor knock-out mice; test: PK1-evoked Isc in ileum mucosal tissues from PK1 receptor knock-out mice; settings: exogenous PK1 peptide
[6] = system: rat ileal tissues; test: PK1-evoked short-circuit current (Isc) in rat ileum mucosa, Ussing-type flux chambers

T1 sequence (Q8TCW9 whole entry, species assumed): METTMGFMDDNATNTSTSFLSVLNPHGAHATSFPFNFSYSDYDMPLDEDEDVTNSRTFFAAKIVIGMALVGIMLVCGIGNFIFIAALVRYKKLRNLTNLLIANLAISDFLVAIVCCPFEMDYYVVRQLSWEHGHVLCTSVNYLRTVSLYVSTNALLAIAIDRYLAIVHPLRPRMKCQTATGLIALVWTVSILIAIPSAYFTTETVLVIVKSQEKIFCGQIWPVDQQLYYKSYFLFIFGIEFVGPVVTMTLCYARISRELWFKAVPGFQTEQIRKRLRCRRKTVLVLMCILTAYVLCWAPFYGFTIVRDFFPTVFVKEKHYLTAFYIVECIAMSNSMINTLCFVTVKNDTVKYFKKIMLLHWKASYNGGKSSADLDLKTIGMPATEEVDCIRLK
T2 sequence (Q8R416 whole entry): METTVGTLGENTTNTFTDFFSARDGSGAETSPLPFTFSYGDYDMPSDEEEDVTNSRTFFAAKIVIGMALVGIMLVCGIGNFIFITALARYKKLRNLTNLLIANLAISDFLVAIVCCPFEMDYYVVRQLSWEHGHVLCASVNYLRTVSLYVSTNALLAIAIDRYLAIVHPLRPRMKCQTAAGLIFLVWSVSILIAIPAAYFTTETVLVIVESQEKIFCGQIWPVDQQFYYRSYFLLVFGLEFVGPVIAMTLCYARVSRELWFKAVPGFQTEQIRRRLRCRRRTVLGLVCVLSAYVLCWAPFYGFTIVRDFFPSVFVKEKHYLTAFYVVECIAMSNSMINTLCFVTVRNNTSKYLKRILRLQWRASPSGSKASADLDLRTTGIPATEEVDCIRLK

Molecule | Ca^2+ Mobilization % Inh @10 µM ([1]; 10 µM, (further determination)) [%] | Ca^2+ Mobilization % Inh @10 µM ([1]; 10 µM) [%] | IC50 ([1]; IC50 (further determination)) [nM] | IC50 [1] [nM] | suppression of the PK1 evoked increase in Isc [2] | suppression of the pro-secretory effect of carbachol [3] | suppression of Cholera toxin induced increase in Isc (figure legends) [4] | suppression of the sustained increase in baseline Isc evoked by Cholera toxin [4] | effect versus increased baseline Isc evoked by Vibrio cholera toxin ([4]; 1 μM) | change in Isc compared to wild-type littermates [5] | effect on tissue conductance (G) [6] | increase in Isc from baseline ([6]; 10 nM PK1) | increase in Isc from baseline ([6]; 100 nM PK1) | EC50 ([6]; read-out: EC50 of PK1-evoked increases in Isc, cumulative concentration-response, basolateral addition) [nM]
COc1ccc(Cn2c(NCCn3c(N)nc4ccc(C)cc43)nc(=O)n(Cc3ccc(F)cc3)c2=O)cc1 [Cpd 3, 6-[2-(2-Amino-6-methyl-benzoimidazol-1-yl)-ethylamino]-3-(4-fluoro-benzyl)-1-(4-methoxy-benzyl)-1H-[1,3,5]triazine-2,4-dione] | 94 | 96 | 29 | 8 | suppresses | failed to suppress | suppresses | 50-60% | no significant effect | – | – | – | – | –
B1 | – | – | – | – | – | – | – | – | – | failed to elicit a significant change | no significant effect | 13.5±2. […]A/cm^2 | 28.7±2.9 µA/cm^2 | ~8.2
